Results as given in patent publication US10752640B2, “Compounds active towards bromodomains” (NUEVOLUTION A/S, priority 2014, dated 2020).

target: BRD4 protein (Homo sapiens, UniProt O60885); assay: FRET assay, half maximal inhibitory concentration (IC50); type: binding; settings: BRD4 protein 50 nM, Biotin-H4KAc4 peptide 12.5 nM; A Further List of Classification
Method in brief: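 Acetylated histone H4 peptide binding (biotin-H4KAc4, 12.5 nM final) to BRD4 (50 nM final) detected by TR-FRET between streptavidin cryptate (2.4 nM) and GST-XL665 antibody (10 nM) in KF/BSA. Buffer: HEPES pH 7.5, NaCl, CHAPS. Compound dilutions from 50 μM in 12.5% DMSO were preincubated with protein for 30 min. Variable-slope IC50.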

`Cc1cc(O)nc2ccc(NC(=O)c3cc(S(=O)(=O)N(C)C)ccc3N3CCC(C(N)=O)C3)cc12` (centres unmarked) [S44, 1-[4-(dimethylsulfamoyl)-2-[(2-hydroxy-4-methyl-6-quinolyl)carbamoyl]phenyl]pyrrolidine-3-carboxamide] and `Cc1cc(O)nc2ccc(NC(=O)c3cc(S(=O)(=O)N(C)C)ccc3N3CCC(NC(N)=O)C3)cc12` (centres unmarked) [S48, 5-(dimethylsulfamoyl)-N-(2-hydroxy-4-methyl-6-quinolyl)-2-(3-ureidopyrrolidin-1-yl)benzamide] cannot be ordered by IC50: under 200 nM for the first, under 200 nM for the second.

First: Cc1cc(O)nc2ccc(NC(=O)c3cc(S(=O)(=O)N(C)C)ccc3N3CCC(N(C)C)C3)cc12 (centres unmarked) [S45, 2-[3-(dimethylamino)pyrrolidin-1-yl]-5-(dimethylsulfamoyl)-N-(2-hydroxy-4-methyl-6-quinolyl)benzamide]
Second: Cc1cc(O)nc2ccc(NC(=O)c3cc(S(=O)(=O)N(C)C)ccc3N3CCC(CN(C)C)C3)cc12 (centres unmarked) [S47, 2-[3-(dimethylaminomethyl)pyrrolidin-1-yl]-5-(dimethylsulfamoyl)-N-(2-hydroxy-4-methyl-6-quinolyl)benzamide]
The IC50 of the first is higher: 500 to 1000 nM for the first, under 200 nM for the second.

Compared with `Cc1cc(O)nc2ccc(NC(=O)c3cc(S(=O)(=O)N(C)C)ccc3N3CCC(CC(C)C)C3)cc12` (centres unmarked) [S46, 5-(dimethylsulfamoyl)-N-(2-hydroxy-4-methyl-6-quinolyl)-2-(3-isobutylpyrrolidin-1-yl)benzamide], `Cc1cc(O)nc2ccc(NC(=O)c3cc(S(=O)(=O)N(C)C)ccc3N3CCCC3CC(C)C)cc12` (centres unmarked) [S55, 5-(dimethylsulfamoyl)-N-(2-hydroxy-4-methyl-6-quinolyl)-2-(2-isobutylpyrrolidin-1-yl)benzamide] is lower in IC50: 500 to 1000 nM for the first, 200 to 500 nM for the second.

`Cc1cc(O)nc2ccc(NC(=O)c3cc(S(=O)(=O)N(C)C)ccc3N3CCC(N4CCCC4)C3)cc12` (centres unmarked) [S49, 5-(dimethylsulfamoyl)-N-(2-hydroxy-4-methyl-6-quinolyl)-2-(3-pyrrolidin-1-ylpyrrolidin-1-yl)benzamide] and `Cc1cc(O)nc2ccc(NC(=O)c3cc(S(=O)(=O)N(C)C)ccc3N3CCCC3C)cc12` (centres unmarked) [S52, 5-(dimethylsulfamoyl)-N-(2-hydroxy-4-methyl-6-quinolyl)-2-(2-methylpyrrolidin-1-yl)benzamide] fall in the same range of IC50: 500 to 1000 nM for the first, 500 to 1000 nM for the second.

First: Cc1cc(O)nc2ccc(NC(=O)c3cc(S(=O)(=O)N(C)C)ccc3N3CCC(OCC(N)=O)C3)cc12 (centres unmarked) [S50, 2-[3-(2-amino-2-oxo-ethoxy)pyrrolidin-1-yl]-5-(dimethylsulfamoyl)-N-(2-hydroxy-4-methyl-6-quinolyl)benzamide]
Second: COCC1CCCN1c1ccc(S(=O)(=O)N(C)C)cc1C(=O)Nc1ccc2nc(O)cc(C)c2c1 (centres unmarked) [S53, 5-(dimethylsulfamoyl)-N-(2-hydroxy-4-methyl-6-quinolyl)-2-[2-(methoxymethyl)pyrrolidin-1-yl]benzamide]
The IC50 of the first is higher: 500 to 1000 nM for the first, under 200 nM for the second.

`Cc1cc(O)nc2ccc(NC(=O)c3cc(S(=O)(=O)N(C)C)ccc3N3CCC(c4ccccc4)C3)cc12` (centres unmarked) [S51, 5-(dimethylsulfamoyl)-N-(2-hydroxy-4-methyl-6-quinolyl)-2-(3-phenylpyrrolidin-1-yl)benzamide] and `Cc1cc(O)nc2ccc(NC(=O)c3cc(S(=O)(=O)N(C)C)ccc3N3CCCCC3c3ccccc3)cc12` (centres unmarked) [S67, 5-(dimethylsulfamoyl)-N-(2-hydroxy-4-methyl-6-quinolyl)-2-(2-phenyl-1-piperidyl)benzamide] cannot be ordered by IC50: under 200 nM for the first, under 200 nM for the second.

Compared with `Cc1cc(O)nc2ccc(NC(=O)c3cc(S(=O)(=O)N(C)C)ccc3N3CCC4CN(C)CC43)cc12` (centres unmarked) [S54, 5-(dimethylsulfamoyl)-N-(2-hydroxy-4-methyl-6-quinolyl)-2-(5-methyl-2,3,3a,4,6,6a-hexahydropyrrolo[3,4-b]pyrrol-1-yl)benzamide], `Cc1cc(O)nc2ccc(NC(=O)c3cc(S(=O)(=O)N(C)C)ccc3N3CCC4C3CCCN4C)cc12` (centres unmarked) [S61, 5-(dimethylsulfamoyl)-N-(2-hydroxy-4-methyl-6-quinolyl)-2-(4-methyl-3,3a,5,6,7,7a-hexahydro-2H-pyrrolo[3,2-b]pyridin-1-yl)benzamide] is lower in IC50: 1000 to 10000 nM for the first, 500 to 1000 nM for the second. The second is the more potent here.

`Cc1cc(O)nc2ccc(NC(=O)c3cc(S(=O)(=O)N(C)C)ccc3N3CCCC3CN(C)C)cc12` (centres unmarked) [S56, 2-[2-(dimethylaminomethyl)pyrrolidin-1-yl]-5-(dimethylsulfamoyl)-N-(2-hydroxy-4-methyl-6-quinolyl)benzamide] and `Cc1cc(O)nc2ccc(NC(=O)c3cc(S(=O)(=O)N(C)C)ccc3N3CCCC3C(=O)N(C)C)cc12` (centres unmarked) [S62, 1-[4-(dimethylsulfamoyl)-2-[(2-hydroxy-4-methyl-6-quinolyl)carbamoyl]phenyl]-N,N-dimethyl-pyrrolidine-2-carboxamide] cannot be ordered by IC50: under 200 nM for the first, under 200 nM for the second.

First: Cc1cc(O)nc2ccc(NC(=O)c3cc(S(=O)(=O)N(C)C)ccc3N3CCCC3C(C)(C)O)cc12 (centres unmarked) [S57, 5-(dimethylsulfamoyl)-2-[2-(1-hydroxy-1-methyl-ethyl)pyrrolidin-1-yl]-N-(2-hydroxy-4-methyl-6-quinolyl)benzamide]
Second: Cc1cc(O)nc2ccc(NC(=O)c3cc(S(=O)(=O)N(C)C)ccc3N3CCCC3c3cc[nH]n3)cc12 (centres unmarked) [S59, 5-(dimethylsulfamoyl)-N-(2-hydroxy-4-methyl-6-quinolyl)-2-[2-(1H-pyrazol-3-yl)pyrrolidin-1-yl]benzamide]
The IC50 of the first is higher: 1000 to 10000 nM for the first, under 200 nM for the second.

First: Cc1cc(O)nc2ccc(NC(=O)c3cc(S(=O)(=O)N(C)C)ccc3N3CCCC3c3nnn[nH]3)cc12 (centres unmarked) [S60, 5-(dimethylsulfamoyl)-N-(2-hydroxy-4-methyl-6-quinolyl)-2-[2-(1H-tetrazol-5-yl)pyrrolidin-1-yl]benzamide]
Second: Cc1cc(O)nc2ccc(NC(=O)c3cc(S(=O)(=O)N(C)C)ccc3N3CC(C)C(O)CC3C)cc12 (centres unmarked) [S66, 5-(dimethylsulfamoyl)-2-(4-hydroxy-2,5-dimethyl-1-piperidyl)-N-(2-hydroxy-4-methyl-6-quinolyl)benzamide]
The IC50 of the first is lower: under 200 nM for the first, 500 to 1000 nM for the second. The first is the more potent here.

`Cc1cc(O)nc2ccc(NC(=O)c3cc(S(=O)(=O)N(C)C)ccc3N3C4CCC3CC(C)(O)C4)cc12` (centres unmarked) [S65, 5-(dimethylsulfamoyl)-2-(3-hydroxy-3-methyl-8-azabicyclo[3.2.1]octan-8-yl)-N-(2-hydroxy-4-methyl-6-quinolyl)benzamide] and `CCN(CC)S(=O)(=O)c1ccc(N2CCCC2)c(C(=O)Nc2ccc3nc(O)cc(C)c3c2)c1` [S71, 5-(diethylsulfamoyl)-N-(2-hydroxy-4-methyl-6-quinolyl)-2-pyrrolidin-1-yl-benzamide] fall in the same range of IC50: 500 to 1000 nM for the first, 500 to 1000 nM for the second.

Compared with `CCN(CC)S(=O)(=O)c1ccc(N2CCCCC2)c(C(=O)Nc2ccc3nc(O)cc(C)c3c2)c1` [S72, 5-(diethylsulfamoyl)-N-(2-hydroxy-4-methyl-6-quinolyl)-2-(1-piperidyl)benzamide], `Cc1cc(O)nc2ccc(NC(=O)c3cc(CN(C)CCO)ccc3N3CCCC3)cc12` [S81, 5-[[2-hydroxyethyl(methyl)amino]methyl]-N-(2-hydroxy-4-methyl-6-quinolyl)-2-pyrrolidin-1-yl-benzamide] is lower in IC50: 500 to 1000 nM for the first, under 200 nM for the second.

Compared with `Cc1cc(O)nc2ccc(NC(=O)c3cc([N+](=O)[O-])cnc3N3CCCCC3C)cc12` (centres unmarked) [S74, N-(2-hydroxy-4-methyl-6-quinolyl)-2-(2-methyl-1-piperidyl)-5-nitro-pyridine-3-carboxamide], `COC[C@@H]1CCCN1Cc1ccc(N2CCCC2)c(C(=O)Nc2ccc3nc(O)cc(C)c3c2)c1` [S85, N-(2-hydroxy-4-methyl-6-quinolyl)-5-[[(2S)-2-(methoxymethyl)pyrrolidin-1-yl]methyl]-2-pyrrolidin-1-yl-benzamide] is lower in IC50: 500 to 1000 nM for the first, under 200 nM for the second. The second is the more potent here.

`O=C1CCc2cc(NC(=O)c3cc([N+](=O)[O-])ccc3N3CCCC3)ccc2N1` [S76, 5-nitro-N-(2-oxo-3,4-dihydro-1H-quinolin-6-yl)-2-pyrrolidin-1-yl-benzamide] and `O=C1CCc2cc(NC(=O)c3cc(S(=O)(=O)N4CCOCC4)ccc3N3CCCC3)ccc2N1` [S78, 5-morpholinosulfonyl-N-(2-oxo-3,4-dihydro-1H-quinolin-6-yl)-2-pyrrolidin-1-yl-benzamide] fall in the same range of IC50: 1000 to 10000 nM for the first, 1000 to 10000 nM for the second.

`CN1C(=O)COc2cc(NC(=O)c3cc([N+](=O)[O-])ccc3N3CCCC3)ccc21` [S77, N-(4-methyl-3-oxo-1,4-benzoxazin-7-yl)-5-nitro-2-pyrrolidin-1-yl-benzamide] and `CN1C(=O)COc2cc(NC(=O)c3cc(S(=O)(=O)N4CCOCC4)ccc3N3CCCC3)ccc21` [S79, N-(4-methyl-3-oxo-1,4-benzoxazin-7-yl)-5-morpholinosulfonyl-2-pyrrolidin-1-yl-benzamide] fall in the same range of IC50: 1000 to 10000 nM for the first, 1000 to 10000 nM for the second.

First: CN1CCN(Cc2ccc(N3CCCC3)c(C(=O)Nc3ccc4c(c3)CCC(=O)N4)c2)CC1 [S80, 5-[(4-methylpiperazin-1-yl)methyl]-N-(2-oxo-3,4-dihydro-1H-quinolin-6-yl)-2-pyrrolidin-1-yl-benzamide]
Second: Cc1cc(O)nc2ccc(NC(=O)c3cc(CN4CCN(CCO)CC4)ccc3N3CCCC3)cc12 [S86, 5-[[4-(2-hydroxyethyl)piperazin-1-yl]methyl]-N-(2-hydroxy-4-methyl-6-quinolyl)-2-pyrrolidin-1-yl-benzamide]
The IC50 of the first is higher: 1000 to 10000 nM for the first, under 200 nM for the second.

`Cc1cc(O)nc2ccc(NC(=O)c3cc(CNCC4CCCO4)ccc3N3CCCC3)cc12` (centres unmarked) [S82, N-(2-hydroxy-4-methyl-6-quinolyl)-2-pyrrolidin-1-yl-5-[(tetrahydrofuran-2-ylmethylamino)methyl]benzamide] and `Cc1cc(O)nc2ccc(NC(=O)c3cc(CN4CCC(O)C4)ccc3N3CCCC3)cc12` (centres unmarked) [S84, N-(2-hydroxy-4-methyl-6-quinolyl)-5-[(3-hydroxypyrrolidin-1-yl)methyl]-2-pyrrolidin-1-yl-benzamide] cannot be ordered by IC50: under 200 nM for the first, under 200 nM for the second.

For `Cc1cc(O)nc2ccc(NC(=O)c3cc(CN4CCC(N(C)C)C4)ccc3N3CCCC3)cc12` (centres unmarked) [S83, 5-[[3-(dimethylamino)pyrrolidin-1-yl]methyl]-N-(2-hydroxy-4-methyl-6-quinolyl)-2-pyrrolidin-1-yl-benzamide], the IC50 was under 200 nM.
